Measured values as given in patent US8541653B2, “Transformation of soybean” (BASF Plant Science GmbH, priority 2004, dated 2013).
Where “and” joins values, the source holds several entries; their conditions need not be identical. Equal values may be shown once.

What was measured:
Type in all cases: cell-based, soybean
[1] = test system: axillary meristem explants; assay: Regeneration capacity of axillary meristem explants on shoot initiation medium with BAP or TDZ; conditions: three weeks on shoot induction medium
Description: Cultivar Jack was used in both growing conditions tested. For in vitro donor material, sterile seeds were sown in a Plantcon™ (SIGMA) containing ½ MS salts and 2% sucrose pH 5.7. Seedlings were maintained at 25° C. 16/8 hours (light/dark) photoperiod, at a light intensity between 40 to 70 μM m^−2 s^−1. For greenhouse donor plants, seeds were sown on Metromix™ and grown in the greenhouse at 25° C. and 16 hour photoperiod. Greenhouse tissues were excised from the plant after 3 weeks. For greenhouse materials, the tissues were surface sterilized by immersion on a solution containing 5% Tween 20, followed by immersion in 70% (v/v) ethanol for 2 min then washed for 10 min in 3.5% (v/v) sodium hypochlorite solution and finally rinsed 3 times in sterile water. For in vitro donor material, no further sterilization was needed. Axillary meristem explants were placed basipetal into shoot initiation medium containing full strength MS salts and B5 Gamborg's vitamins amended with either 5 μM BAP or 2 mg/L (9.1 μM) TDZ. […]

[2] = test system: leaf explants; assay: Transient GUS expression on leaf explants after co-cultivation on CCM with thiol compounds (Example 8, experiment 2); conditions: for Entire: explant with GUS (+) foci: entire explant immersed; for Dip: explant with GUS (+) foci: petiole end dipped
Description: In both experiments, soybean cultivar (e.g., Jack) and the Agrobacterium tumefaciens strain AGL1 containing the binary plasmid pBPSEW008 (SEQ ID NO: 1) was used. The binary plasmid contains nosP-bar-nosT and pUBI-gusINT-nosT. The leaf explants and Agrobacterium were prepared as described earlier. The final Agrobacterium OD600 used for all experiments was 0.5. In the first experiment, two repetitions were made for which the following conditions were tested, • (1) addition of one of five thiol combinations added to CCM (no thiols, 100 mg/L L-cysteine (0.825 mM), 400 mg/L L-cysteine (3.3 mM), 1000 mg/L L-cysteine (8.25 mM), or 1 mM sodium thiolsulfate+1 mM DTT+ 1000 mg/L L-cysteine (8.25 mM)), • (2) 3, 4, or 5 day co-cultivation at 25° C., and • (3) incubation in the dark or under 100 μE/m2s cool white light under a 16 light/8 dark light regime. In the second experiment, explants were prepared and subjected to the above treatments except all leaf explants were co-cultivated for 5 days and either the entire ex-plant was immersed into the Agrobacterium/CCM suspension for 10 minutes or the cut petiole end of the explant dipped. Ten explants were entirely immersed per treatment and 4 explants were dipped per treatment. All explants were GUS-stained immediately after co-cultivation.

[3] = test system: propagated axillary meristems (cultivar Jack); assay: GUS expression on propagated axillary meristem explants co-cultivated with L-cysteine; conditions: for frequency of propagated axillary meristems showing GUS(+) foci, Day3: AGL1
Description: Explant preparation: Seeds of variety Jack were surface sterilized by exposure to 70% ethanol for 6 min then immersed in a solution that contained 25% commercial bleach (NaOCl) and 0.1% Tween 20 and stirred at 200 rpm for 20 min. Seeds were rinsed 4 times in sterile water. Germination was carried out for 7 day in the dark at 25° C. The root and half of both cotyledons were removed from the seven-day-old seedlings and imbedded into propagation media on 150×20 mm Petri plates. Plates were sealed with Parafilm™ and placed in a culture room at 25° C. in the light for 2 to 5 weeks.
A. tumefaciens preparation and explant inoculation: A. tumefaciens strain AGL1 carrying the binary vector pBPSMM192b [LB-pSuper-gusINT-NOSt::AtAhast-AtAhas-pAtAhas-RB] (SEQ ID NO: 2) was used. A single colony was used to inoculate 25 to 30 ml LB media containing the appropriate antibiotics. Flasks were shaken on an orbit shaker (220 rpm) at 28° C. for 24 to 36 hours the OD600 reached 0.8 to 1.0. The Agrobacterium was pelleted by centrifugation at 3500 rpm for 8 to 10 min. The bacterial cells were re-suspended in liquid co-cultivation media containing 200 μM acetosyringone. Once cut, the propagated axillary meristem explants were immediately immersed in the A. tumefaciens suspension and remained for 30 minutes. Infected tissues were then transferred either to a vacuum chamber (25-30 mm Hg) for 5 min or placed directly on co-cultivation media. Before transferring onto cultivation medium, explants were blotted dry on sterile filter paper. The treatment tested was the addition of 0, 400, or 800 mg/L L-cysteine into the solid co-cultivation media (0, 3.3, or 6.6 mM, respectively). Co-cultivation was carried out in the dark for 3 days at 25° C. Vacuum infiltration results in an increase of transformation efficiency in protocols which were performed without cysteine-supplementation, but has no significant effect on protocols which were performed with cysteine-supplementation. GUS histochemical assay: Propagated axillary meristem explants infected with A. tumefaciens strain AGL1 were removed from the co-cultivation media after 3 days and stained with Gus overnight at 37° C. Remaining explants were transfer to shoot induction media containing 500 mg/L Timentin™. Gus histochemical assays were also performed at 10 and 45 days after inoculation. Results: After 3 days co-cultivation, the frequency of explants with GUS^+ foci increased from 2.5% to 45 and 63% by the addition of 800 (6.6 mM) or 400 mg/L (3.3 mM) L-cysteine, respectively, into the solid co-cultivation medium. […] The increases in GUS staining were also seen 10 and 45 days after co-cultivation (Table 10).

[4] = test system: explants from the cultivar L00106CN; assay: GUS (+) foci on explants infected with AGL1 carrying three binary vectors, with L-cysteine; conditions: 400 mg/L (3.3 mM) L-cysteine, AGL1, 10 days post-infection
Text: Seed germination, propagation, A. tumefaciens and axillary meristem explant preparation, and inoculations were done as previously described. In the first experiment, three A. tumefaciens strains, MP90, LBA4404 and AGL1, containing the binary vector pBPSMM192b (SEQ ID NO: 2) were compared. The infected propagated axillary meristems with the 3 A. tumefaciens strains were removed from the co-cultivation media after 3 days and GUS stained 10 days after inoculation.
In a separate experiment, GUS expression was evaluated on explants from the cultivar L00106CN 10-days after infection with the Agrobacterium strain AGL1 containing the binary vectors pBPSLM003 [LB-OCSt-bar-pMAS::pSuper-gusINT-NOSt-RB] (SEQ ID NO: 3), pBPSMM192a [LB-NOSt-gusINT-pSuper::AtAhast-AtAhas-pAtAhas-RB], or pBPSMM192b [LB-pSuper-gusINT-NOSt::AtAhast-AtAhas-pAtAhas-RB] (SEQ ID NO: 2). The backbone sequence of pBPSLM003 (SEQ ID NO: 3) is different of that in pBPSMM192a and b (SEQ ID NO: 2). The vector pBPSMM192a [LB-NOSt-gusINT-pSuper::AtAhast-AtAhas-pAtAhas-RB is distinguished from the vector pBPSMM192b (SEQ ID NO: 2) by the orientation of the pSuper-gusINT-NOSt expression cassette, which is in reverse orientation.
Explants were also evaluated for GUS expression on explants that had been co-cultivated with or without 400 mg/L (3.3 mM) L-cysteine in the solid co-cultivation medium. Twenty explants of each treatment were prepared for each repetition, a total of 2 repetitions in this experiment. GUS expression was scored 10-days-post initial infection.

[5] = test system: leaf explants; assay: Callus/shoot pad regeneration of leaf explants after co-cultivation on CCM with thiol compounds (Example 8, experiment 1); conditions: L-cysteine levels over 400 mg/L (3.3 mM) in CCM
Description: In both experiments, soybean cultivar (e.g., Jack) and the Agrobacterium tumefaciens strain AGL1 containing the binary plasmid pBPSEW008 (SEQ ID NO: 1) was used. The binary plasmid contains nosP-bar-nosT and pUBI-gusINT-nosT. The leaf explants and Agrobacterium were prepared as described earlier. The final Agrobacterium OD600 used for all experiments was 0.5. In the first experiment, two repetitions were made for which the following conditions were tested, • (1) addition of one of five thiol combinations added to CCM (no thiols, 100 mg/L L-cysteine (0.825 mM), 400 mg/L L-cysteine (3.3 mM), 1000 mg/L L-cysteine (8.25 mM), or 1 mM sodium thiolsulfate+1 mM DTT+ 1000 mg/L L-cysteine (8.25 mM)), • (2) 3, 4, or 5 day co-cultivation at 25° C., and • (3) incubation in the dark or under 100 μE/m2s cool white light under a 16 light/8 dark light regime. Ten explants were prepared for each treatment. The explants were grown on SIM medium for 2 weeks after which time the percent of explants developing a callus/shoot pad were recorded.

[6] = 100 mg/l Cys in CCM, Light, 5 days co-cultivation

`c1ccc(CNc2ncnc3nc[nH]c23)cc1` [BAP, 6-benzylaminopurine] was tested, and the “Mean # of shoots per explant” value ([1]; Greenhouse plant, BAP 5 uM) was 0.20 and the “Mean # of shoots per explant” value ([1]; In vitro plant, BAP 5 uM) was 1.97.
With `N[C@@H](CS)C(=O)O` [L-cysteine] the “Entire: explant with GUS (+) foci” value [2, 6] was 6/10, the “Dip: explant with GUS (+) foci” value [2, 6] was 0/4 and the “Entire: explant with GUS (+) foci” value ([2]; 100 mg/l Cys, Dark) was 7/10. The “Dip: explant with GUS (+) foci” value ([2]; 100 mg/l Cys, Dark) was 0/4, the “Entire: explant with GUS (+) foci” value ([2]; 400 mg/l Cys, Dark) was 9/10 and the “Dip: explant with GUS (+) foci” value ([2]; 400 mg/l Cys, Dark) was 3/4. For the same compound, the “Entire: explant with GUS (+) foci” value ([2]; 400 mg/l Cys, Light) was 9/10, the “Dip: explant with GUS (+) foci” value ([2]; 400 mg/l Cys, Light) was 1/4 and the “effect on explant tissue” value ([2]; 1000 mg/L L-cysteine in CCM) was “significant bleaching”. For the same compound, the “Entire: explant with GUS (+) foci” value ([2]; 1000 mg/l Cys, Dark) was 3/10, the “Dip: explant with GUS (+) foci” value ([2]; 1000 mg/l Cys, Dark) was 0/4 and the “Entire: explant with GUS (+) foci” value ([2]; 1000 mg/l Cys, Light) was 3/10. The “Dip: explant with GUS (+) foci” value ([2]; 1000 mg/l Cys, Light) was 1/4, the “frequency of propagated axillary meristems showing GUS(+) foci, Day 10” value ([3]; 400 mg/L L-cysteine) was 90.0% and the “frequency of propagated axillary meristems showing GUS(+) foci, Day 45” value ([3]; 400 mg/L L-cysteine) was 22.5%. The “frequency of propagated axillary meristems showing GUS(+) foci, Day3” value ([3]; 400 mg/L L-cysteine in solid co-cultivation medium) was 63% and 65.0%, the “frequency of propagated axillary meristems showing GUS(+) foci, Day 10” value ([3]; 800 mg/L L-cysteine) was 72.5% and the “frequency of propagated axillary meristems showing GUS(+) foci, Day 45” value ([3]; 800 mg/L L-cysteine) was 7.5%. The “frequency of propagated axillary meristems showing GUS(+) foci, Day3” value ([3]; 800 mg/L L-cysteine in solid co-cultivation medium) was 45% and 47.5%, the “browning and tissue necrosis of explants” value ([3]; compared with explants not exposed to L-cysteine) was “less browning and tissue necrosis” and the “frequency of GUS (+) foci on explants, pBPSLM003” value [4] was 85%. The “frequency of GUS (+) foci on explants, pBPSMM192a” value [4] was 77%, the “frequency of GUS (+) foci on explants, pBPSMM192b” value [4] was 95% and the “effect on explant tissue” value [5] was “tissue death”.
For `O=C(Nc1ccccc1)Nc1cnns1` [TDZ], the “Mean # of shoots per explant” value ([1]; Greenhouse plant, TDZ 9.1 μM) was 0.32 and the “Mean # of shoots per explant” value ([1]; In vitro plant, TDZ 9.1 μM) was 0.74.
